Converted amounts (≈) assume the structure as drawn. Where two headings read alike, the source gives them in different places.

The test system of one data set is SK-OV-3. As to the kind of experiment: cells. The data set is classed as cell-based, human. The conditions noted are these: Homo sapiens.
A short description of data set [1]: physchem. Conditions: pH 7.4.
Data set [2] can be described thus: physchem. Conditions: pH 7.4. The source holds these as a separate data set.
A short description of data set [3]: in vitro. The conditions noted are these: male, Sprague Dawley, rat, microsomes, pH 7.4; n = 1, fraction unbound assumed 1; read-out: Microsome Clint, rat (RLM). The data set is classed as in vitro ADME.
Data set [4] can be described thus: in vitro. The data set is classed as in vitro ADME. Conditions: both sexes, human, microsomes, pH 7.4; n = 1, fraction unbound assumed 1; read-out: Microsome Clint, human (HLM).
A short description of data set [5]: in vitro. The data set is classed as in vitro ADME, mouse. Conditions: male, CD1, mouse, microsomes, pH 7.4; n = 1, fraction unbound assumed 1; read-out: Microsome Clint, mouse (MLM).

Regarding `Cc1ccc(NC(=O)c2ccc3c(c2)OCCO3)cc1NC(=O)c1ccc2nc(CN3CCN(C)CC3)ccc2c1` [Compound 15, N-(5-(2,3-Dihydrobenzo[b][1,4]dioxine-6-carboxamido)-2-methylphenyl)-2-((4-methylpiperazin-1-yl)methyl)quinoline-6-carboxamide], the GI50 in the data set with SK-OV-3 (SK-OV-3, 96 h, read-out: SK-OV-3 pGI50 ± SEM (n) (converted)) was 9.55 nM; in the data set with SK-OV-3 (SK-OV-3, 96 h, CellTiter-Blue, geometric mean, read-out: SK-OV-3 GI50), 9.5 nM. Further, in the data set “physchem [1]”, the kinetic solubility (as a rule, solubility judged after dilution from a stock solution rather than from solid) at 2 h, 100 µM is 80 µM (≈ 44.1 µg/mL). In the data set “physchem [2]”, the chromatographic logD (commonly lipophilicity estimated from chromatographic retention) is 1.6. Further, the microsomal CLint stood at 33 µL/min/mg in “in vitro [3]”, 33 µL/min/mg in “in vitro [4]” and 21 µL/min/mg in the data set “in vitro [5]”.

Values taken from publication PMC10150365 (Journal of Medicinal Chemistry, 2023).
